The values that follow come from patent publication US20190016689A1, “NOVEL FLUORINATED QUINAZOLINE DERIVATIVES AS EGFR INHIBITORS” (TRILLIUM THERAPEUTICS INC., priority 2016, published 2019).

One data set relates to SF-539. The experiment in a line: NCI screening panel (SRB). Format: cell-based. As to conditions: Homo sapiens, SF-539 (CNS), 48 h; for CC50: read-out: LC50 (the source's name).
A further data set concerns HCC-2998. As to the kind of experiment: NCI screening panel (SRB). Format: cell-based. The settings on record: Homo sapiens, HCC-2998 (Colon), 48 h; for CC50: read-out: LC50 (the source's name).
The target of another data set is SRC (Homo sapiens, UniProt P12931). The experiment in a line: Kinase assays, selectivity panel (qPCR). The settings on record: read-out: % Control @ 300 nM. For orientation: Quantitative PCR measures a nucleic acid by following its amplification.
SRC, sequence (P12931 whole entry): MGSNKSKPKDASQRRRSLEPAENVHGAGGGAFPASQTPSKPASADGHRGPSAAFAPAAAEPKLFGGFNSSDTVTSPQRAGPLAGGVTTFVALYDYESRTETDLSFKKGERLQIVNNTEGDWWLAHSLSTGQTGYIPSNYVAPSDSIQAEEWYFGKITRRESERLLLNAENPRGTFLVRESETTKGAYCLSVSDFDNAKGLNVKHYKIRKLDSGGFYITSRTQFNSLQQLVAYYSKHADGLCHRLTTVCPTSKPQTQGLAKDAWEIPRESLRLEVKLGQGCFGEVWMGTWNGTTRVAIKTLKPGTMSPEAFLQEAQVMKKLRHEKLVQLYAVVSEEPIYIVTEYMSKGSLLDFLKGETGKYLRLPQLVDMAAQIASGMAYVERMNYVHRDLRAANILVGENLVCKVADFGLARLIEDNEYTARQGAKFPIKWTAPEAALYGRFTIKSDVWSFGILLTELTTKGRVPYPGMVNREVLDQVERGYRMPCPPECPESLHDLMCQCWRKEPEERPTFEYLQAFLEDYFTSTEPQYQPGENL
In a further data set the test system is MDA-MB-231/ATCC. The experiment in a line: NCI screening panel (SRB). Format: cell-based. The settings on record: Homo sapiens, MDA-MB-231/ATCC (Breast), 48 h; for CC50: read-out: LC50 (the source's name).
The test system of the next data set is P-gp. As to the kind of experiment: in vitro. The settings on record: human, Caco-2, pH 7.4. On the procedure:
At this stage of growth, cell monolayers were fully polarized and differentiated.
The permeability assay buffer was Hanks Balanced Salt Solution containing 10 mM HEPES and 15 mM glucose at a pH of 7.4. The dosing buffer contained 5 μM metoprolol (positive control), 5 μM atenolol (negative control) and 100 μM lucifer yellow. The buffer in the receiver chamber also contained 1% bovine serum albumin (BSA). The dosing solution concentration was 5 μM in the assay buffer. Digoxin (20 μM) was used as Pgp substrate control.
The known Pgp inhibitor was co-dosed at 50 μM with compound at 5 μM.
Cell monolayers were dosed on the apical side (A-to-B) or basolateral side (B-to-A) and incubated at 37° C. in a shaker (65 rpm). Samples were taken from the donor and receiver chambers at 120 minutes. Each determination was performed in duplicate.
Narrow-window mass extraction LC/MS analysis was performed for all samples from this study using a Waters Xevo quadrupole time-of-flight (QTof) mass spectrometer, to determine relative peak areas of parent compound. The percent of transported drug was calculated based on these peak areas, relative to the initial, dosing concentration.

A further data set has as its target CYP 3A4 (Homo sapiens, UniProt P08684). As to the kind of experiment: CYP450 inhibition. It counts as in vitro ADME. As to conditions: Testosterone.
The next data set relates to hepatocytes. As to the kind of experiment: Metabolic stability (hepatocytes). Format: in vitro ADME. The settings on record: 1 μM. As to the method:
a) Place incubation medium (William's E Medium supplemented with GlutaMAX) and hepatocyte thawing medium in a 37° C. water bath, and allow warming for at least 15 minutes prior to use. b) Remove a vial of cryopreserved hepatocytes from storage, ensuring that vials remain at cryogenic temperatures until thawing process ensues. Thaw the cells by placing the vial in a 37° C. water bath and gently shaking the vials for 2 minutes. After thawing is completed, spray vial with 70% ethanol, transfer the vial to a biosafety cabinet. c) Use wide-bore pipette tip to transfer hepatocytes into 50 mL conical tube containing thawing medium. Place the 50 mL conical tube into a centrifuge and spin at 100 g for 10 minutes. Upon completion of spin, aspirate thawing medium and resuspend hepatocytes in enough incubation medium to yield ˜1.5×10^6 cells/mL. d) Using a Trypan Blue exclusion, count cells and determine the viable cell density. Cells with poor viability (<75% viability) are not acceptable for use. Dilute cells with incubation medium to a working cell density of 0.5×10^6 viable cells/mL. e) A portion of the hepatocytes at 0.5×10^6 viable cells/mL was boiled for 5 min prior to adding to the plate as negative control to eliminate the enzymatic activity so that little or no substrate turnover should be observed. The boiled hepatocytes are used to prepare negative control samples, which used to exclude the misleading factor that resulted from instability of chemical itself. Negative control wells are prepared in duplicate.
a) Pipette 198 μL of hepatocytes into each wells of a 96-well non-coated plate. Place the plate in the CO2 incubator at 37° C. on an orbital shaker to allow the hepatocytes to warm for 10 minutes. b) Pipette 2 μL of the 100 μM test compounds or positive control into respective wells of the 96-well plate to start the reaction. c) Return the plate to the incubator and place on an orbital shaker with a shaking speed of 150 rpm. The reaction for each compound will be performed in duplicate.
a) Remove 25 μL aliquots of reaction mixture at time points of 0, 15, 30, 60, 90 and 120 minutes. b) The aliquots are then mixed with 6 volumes (150 μL) of acetonitrile containing internal standards (IS: 100 nM alprazolam, 200 nM labetalol, and 2 μM ketoprofen) to terminate the reaction. Centrifuge the plate for 20 minutes at 3,800 g. Aliquots of 100 μL of the supernatants will be mixed with 100 μL ultrapure water and used for LC/MS/MS analysis.

CYP 3A4, sequence (P08684 whole entry): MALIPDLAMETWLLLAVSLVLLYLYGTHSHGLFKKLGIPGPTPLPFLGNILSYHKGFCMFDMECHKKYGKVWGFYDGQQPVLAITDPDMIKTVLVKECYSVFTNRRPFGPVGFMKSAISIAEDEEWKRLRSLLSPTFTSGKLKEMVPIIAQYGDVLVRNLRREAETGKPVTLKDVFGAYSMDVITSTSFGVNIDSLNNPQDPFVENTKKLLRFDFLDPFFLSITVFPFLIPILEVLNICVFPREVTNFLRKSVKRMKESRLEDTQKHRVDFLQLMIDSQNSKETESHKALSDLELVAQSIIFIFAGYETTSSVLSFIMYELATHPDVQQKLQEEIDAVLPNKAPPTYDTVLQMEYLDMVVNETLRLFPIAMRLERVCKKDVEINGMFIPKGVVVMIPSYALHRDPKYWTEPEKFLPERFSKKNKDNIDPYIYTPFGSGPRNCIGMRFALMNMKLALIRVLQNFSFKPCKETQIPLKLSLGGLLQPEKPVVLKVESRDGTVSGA
Experimental for CYP 3A4: Prepare stock solutions of the test compound and positive control compounds described in Table 8 in DMSO at 0, 0.2, 1, 2, 10, 50, 200, 2000 and 10000 μM. Transfer 1 μL of the stock solutions to the Incubation Plate. The final concentrations of test compound or positive control compound are 0, 0.001, 0.005, 0.01, 0.05, 0.25, 1, 10 and 50 μM. All experiments are performed in duplicate.

A word on the GI50: it is the concentration at which growth is held to half of that of the control. `CN(C)C/C=C/C(=O)Nc1cc2c(Nc3ccc(F)c(Cl)c3F)ncnc2cc1OCCOC(F)F.O=C(O)/C=C\C(=O)O.O=C(O)/C=C\C(=O)O` [Example I-9-MA, (E)-N-[4-(3-chloro-2,4-difluoro-anilino)-7-[2-(difluoromethoxy)ethoxy]quinazolin-6-yl]-4-(dimethylamino)but-2-enamide di-maleic acid salt]: the values for the GI50 with SF-539, in the data set on HCC-2998 and in the data set on MDA-MB-231/ATCC were 1.06 µM, 1.14 µM and 0.391 µM, respectively. Further, the CC50 in the data set with SF-539 was found to be 9.52 µM; with HCC-2998, 5.67 µM; in the data set on MDA-MB-231/ATCC, 28.8 µM. Besides, the remaining activity at 0.3 µM on SRC was determined as 3.5%.

With `O=C(/C=C/CN1CCCCC1)Nc1cc2c(Nc3ccc(F)c(Cl)c3F)ncnc2cc1OCCOC(F)F.O=C(O)/C=C\C(=O)O.O=C(O)/C=C\C(=O)O` [Example I-10-MA, (E)-N-[4-(3-chloro-2,4-difluoro-anilino)-7-[2-(difluoromethoxy)ethoxy]quinazolin-6-yl]-4-(1-piperidyl)but-2-enamide di-maleic acid salt], the GI50 with SF-539 worked out at 1.5 µM; in the data set on HCC-2998 it was 1.8 µM; in the data set with MDA-MB-231/ATCC, 1.15 µM. Further, the results for the CC50 in the data set on SF-539, in the data set on HCC-2998 and in the data set with MDA-MB-231/ATCC were 14.3 µM, 7.85 µM and 17.6 µM, respectively. In addition, at SRC, the remaining activity at 0.3 µM worked out at 4.8%.

Usually efflux ratio stands for a quotient of directional permeabilities that is used to spot active efflux. A word on the IC50: it is the concentration at which inhibition is half-maximal. Consider `CN(C)C/C=C/C(=O)Nc1cc2c(Nc3cccc(Cl)c3F)ncnc2cc1OCCOC(F)F.O=C(O)/C=C\C(=O)O` [Example I-5-MA, (E)-N-[4-(3-chloro-2-fluoro-anilino)-7-[2-(difluoromethoxy)ethoxy]quinazolin-6-yl]-4-(dimethylamino)but-2-enamide dimaleic acid salt], for which the efflux ratio at 120 min, 5 µM in the data set with P-gp came to 0.48. This molecule also came in with an IC50 at CYP 3A4 of 42 µM. The “% Remaining @ 120 min” value with hepatocytes (Dog hepatocytes) stood at 47.29%; in the data set with hepatocytes (Human hepatocytes) it was 82.95%; in the data set with hepatocytes (Monkey hepatocytes) it was 21.97%; in the data set with hepatocytes (Mouse hepatocytes), 36.27%; in the data set on hepatocytes (Rat hepatocytes), 59.08%.
